# According to publication PMC9692552, “Activity and Synergy of Cu-ATCUN Antimicrobial Peptides” (International Journal of Molecular Sciences, 2022):
# Where two headings read alike, the source gives them in different places. Ends that are not written are not given here.
# Experiments:
# [1] = in SDS, as previously reported, cited from earlier work
# Excerpt: Table 1 SMAP-29 derivatives used in this study and others with sequences and defining characteristics. ^a Estimated charge calculated from Innovagen’s peptide property calculator. ^b The helical activity of peptides as previously reported in the referenced manuscripts. ND: not determined. | column: % Helical (SDS) ^b
# A. baumannii BAA747 [2] = settings: cited from earlier work
# Excerpt: (§1) Table 2 MIC Values (µM) for SMAP-29 Derivatives. * Previously reported data from reference r comparison. | column: OV3 *; Cu-1 *; Cu-2 *; Cu-3 *; Cu-4 * || Table 4 MIC values for antimicrobial peptides utilized in this study. MIC values for a variety of the presented peptides have been previously determined in alternative conditions; values here are the result of experimental efforts to determine MICs under the conditions utilized for further study of FIC potential, with the exception of Sub5 and Sub5-01, previously characterized in our laboratory, w | column: Sub5; Sub5-01
# E. faecium 700221 (VRE) = settings: cited from earlier work
# Excerpt: as §1
# S. aureus 43300 (MRSA) = settings: cited from earlier work
# Excerpt: as §1
# E. coli 25922 [3] = settings: cited from earlier work
# Excerpt: as §1
# P. aeruginosa 27583 = settings: cited from earlier work
# Excerpt: as §1
# K. pneumoniae 700603 = settings: cited from earlier work
# Excerpt: as §1
# E. coli 25922 [4] = settings: single peptide on the FIC plate, cited from earlier work
# Excerpt: Figure 6 Summary of peptide interactions in E. coli 25922 from data presented in Results and Supplemental Material. Synergistic (or non-synergistic) interactions for CP10A, TempL, OV3-00 and OV3-01 with other peptides are grouped as shown. Parental and ATCUN derivatives are outlined in the same shape with the average FIC value shown in parentheses. TEXT PRINTED IN THE PICTURE: Sub5: E. coli 25922, CP10A, Synergistic: (0.4); E. coli 25922, TempL, Additive/Indifferent: (1) | Sub5-01: E. coli 25922, CP10A, Synergistic: (0.42); E. coli 25922, TempL, Additive/Indifferent: (0.78) | Mag2-01: E. coli ... || page 3: For Tables S3-S10: FIC Index = [A]/[MICA] + [B]/[MICB], where [A] and [B] are the concentrations of respective peptides at which no growth was observed when dosed in combination, and [MICA] and [MICB] are the concentrations where no growth was observed when dosed separately. The data from each experiment repeated in duplicate or triplicate is shown and bolded data in the final row is the average FIC value. Error is reported as the standard deviation of the mean. Table S3. FIC values for Interactions of CP10A and TempL in E. coli 25922. * Previously reported data from reference for ... || page 4: Table S4. FIC values for the non-ATCUN containing parental peptides in E. coli 25922. A CP10A CP10A CP10A TempL TempL TempL TempL B Sub5 13 Mag2 OV3-00 Sub5 TRP Mag2 OV3-00 [A] 2/4/4 2/2/1 2/2/0.5 2/2/2 1/1/1 0.25/1/2 2/2/2 MICA 16/16/16 4/4/2 4/4/4 4/4/4 2/4/2 4/4/4 16/16/16 [B] 1/0.5/0.25 2/2/2 0.5/1/1 4/4/4 4/4/4 4/2/0.125 4/1/1 MICB 4/2/4 4/4/4 2/2/2 8/8/8 8/8/8 8/8/8 8/2/2 FIC 0.375/0.328/0.5 1/1/1 0.75/1/0.625 1/1/1 1/0.75/1 0.56/0.5/0.52 0.625/0.625/0.625 FICAvg 0.40 ± 0.04 1 0.78 ± 0.2 1 0.9 ± 0.14 0.53 ± 0.03 0.625 Table S5. FIC Values for ATCUN peptide derivatives in MRSA 433 ...
# MRSA 43300 [5] = experiment: FIC of peptide pairs (two-way dilution, 96-well plate); assay type: cell-based, S. aureus; settings: single peptide on the FIC plate
# Description: (§2) Determining MIC values informed decisions on testing peptides in combination. Fractional inhibitory concentrations determine the ability of test articles to act in concert against a pathogen. FIC determination is experimentally similar to MIC determination, except one test article is diluted down the wells and another is diluted across the wells of the 96-well plate in order to test the synergism of two peptides. […] Synergy is defined as an FIC of less than or equal to 0.5, meaning there is a four-fold reduction in the concentration of each peptide required for inhibition. Any number above 4 indicates a deleterious interaction that reduces the effectiveness of each peptide, and a value between 0.5 and 1 can be considered additive (Equation (2)).
# (§3) Fractional inhibitory concentrations (FICs) were determined in a manner similar to MIC determinations but with serial dilutions of two peptides running both horizontally and vertically across the 96-well plate. Determination of the FIC can be seen in Equation (2), where FIC is the fractional inhibitory concentration, [A] is the concentration of substrate A at MIC in combination, [B] is the concentration of substrate B at MIC in combination, and MICA and MICB are the MIC of substrate A and substrate B, respectively. FIC = fractional inhibitory concentration, [A] = concentration of A at MIC in combination, [B] = concentration of B at MIC in combination, MICA = minimum inhibitory concentration of A, and MICB = minimum inhibitory concentration of B. When FIC ≤ 0.5 the results are synergistic. If FIC > 4, the results are antagonistic, and when FIC > 0.5, the results are indifferent or additive. (2) FIC=[A]/MICA+ [B]/MICB
# MRSA 43300 [6] = system: MRSA 43300; design: method as in ref [13] of the supplement ([11] in main text); settings: single peptide on the FIC plate, cited from earlier work
# E. coli 25922 [7] = experiment: FIC of peptide pairs (two-way dilution, 96-well plate); assay type: cell-based, Escherichia coli; settings: single peptide on the FIC plate
# Description: as §2, §3
# A. baumannii BAA747 [8] = system: A. baumannii BAA747; design: method as in ref 13 of the supplement ([11] in main text); settings: Acinetobacter baumannii, single peptide on the FIC plate, ref 13 of the supplement ([11] in main text), cited from earlier work
# [9] = previously reported data, ref [8]
# [10] = P. aeruginosa (27583), previously reported data, ref [8]
# [11] = replicate 1, ref [13] of the supplement ([11] in main text)
# [12] = replicate 2, ref [13] of the supplement ([11] in main text)
# [13] = replicate 3, ref [13] of the supplement ([11] in main text)
# [14] = taken from earlier work, ref [7]
# [15] = P. aeruginosa 27583, taken from earlier work, ref [7]
substance,measurement,setting,value
"GGHGIRRIIRKIIHIIKKGGC-NH2 [Cu-2, ATCUN-OV3 derivative from the authors' earlier work]",% Helical (SDS),[1]; ref [8],56% [8]
same,MIC,A. baumannii BAA747 [2]; [9],9.3 µM
same,MIC,E. faecium 700221 (VRE); [9],8 µM
same,MIC,S. aureus 43300 (MRSA); [9],4 µM
same,MIC,E. coli 25922 [3]; [9],3 µM
same,MIC,P. aeruginosa 27583; [10],12 µM
same,MIC,K. pneumoniae 700603; [9],>16 µM
"GGHGIRRIIRKIIHIKK-NH2 [Cu-1, ATCUN-OV3 derivative from the authors' earlier work]",% Helical (SDS),[1]; ref [8],14% [8]
same,MIC,A. baumannii BAA747 [2]; [9],2.7 µM
same,MIC,E. faecium 700221 (VRE); [9],16 µM
same,MIC,S. aureus 43300 (MRSA); [9],16 µM
same,MIC,E. coli 25922 [3]; [9],>16 µM
same,MIC,P. aeruginosa 27583; [10],>16 µM
same,MIC,K. pneumoniae 700603; [9],16 µM
"GGHIRRIIRKIIHIIKK-NH2 [Cu-3, ATCUN-OV3 derivative from the authors' earlier work]",% Helical (SDS),[1]; ref [8],35% [8]
same,MIC,A. baumannii BAA747 [2]; [9],5.3 µM
same,MIC,E. faecium 700221 (VRE); [9],8 µM
same,MIC,S. aureus 43300 (MRSA); [9],16 µM
same,MIC,E. coli 25922 [3]; [9],>16 µM
same,MIC,P. aeruginosa 27583; [10],>16 µM
same,MIC,K. pneumoniae 700603; [9],16 µM
"GGHIRRIIRKIIHIIKKGGC-NH2 [Cu-4, ATCUN-OV3 derivative from the authors' earlier work]",% Helical (SDS),[1]; ref [8],64% [8]
same,MIC,A. baumannii BAA747 [2]; [9],10.7 µM
same,MIC,E. faecium 700221 (VRE); [9],3.3 µM
same,MIC,S. aureus 43300 (MRSA); [9],1.5 µM
same,MIC,E. coli 25922 [3]; [9],1.3 µM
same,MIC,P. aeruginosa 27583; [10],4 µM
same,MIC,K. pneumoniae 700603; [9],8 µM
"GGHRRWKIVVIRWRR-NH2 [Sub5-01, ATCUN derivative of Sub5, previously characterized by the authors]","MICA/MICB, concentration with no growth when dosed separately",E. coli 25922 [4]; [11],4 µM
same,"MICA/MICB, concentration with no growth when dosed separately",E. coli 25922 [4]; [12],4 µM
same,"MICA/MICB, concentration with no growth when dosed separately",E. coli 25922 [4]; [13],4 µM
same,"MICA/MICB, concentration with no growth when dosed separately",MRSA 43300 [5]; replicate 1,4 µM
same,"MICA/MICB, concentration with no growth when dosed separately",MRSA 43300 [5]; replicate 2,4 µM
same,"MICA/MICB, concentration with no growth when dosed separately",MRSA 43300 [5]; replicate 3,4 µM
same,"MICA/MICB, concentration with no growth when dosed separately",MRSA 43300 [6]; [11],16 µM
same,"MICA/MICB, concentration with no growth when dosed separately",MRSA 43300 [6]; [12],16 µM
same,"MICA/MICB, concentration with no growth when dosed separately",MRSA 43300 [6]; [13],16 µM
same,"MICA/MICB, concentration with no growth when dosed separately",E. coli 25922 [7]; replicate 1,8 µM
same,"MICA/MICB, concentration with no growth when dosed separately",E. coli 25922 [7]; replicate 2,8 µM
same,"MICA/MICB, concentration with no growth when dosed separately",E. coli 25922 [7]; replicate 3,8 µM
same,"MICA/MICB, concentration with no growth when dosed separately",A. baumannii BAA747 [8]; replicate 1,1 µM
same,"MICA/MICB, concentration with no growth when dosed separately",A. baumannii BAA747 [8]; replicate 2,2 µM
same,"MICA/MICB, concentration with no growth when dosed separately",A. baumannii BAA747 [8]; replicate 3,1 µM
same,MIC,A. baumannii BAA747 [2]; [14],1 µM
same,MIC,E. faecium 700221 (VRE); [14],0.4 µM
same,MIC,S. aureus 43300 (MRSA); [14],1 µM
same,MIC,E. coli 25922 [3]; [14],2.7 µM
same,MIC,P. aeruginosa 27583; [15],2 µM
same,MIC,K. pneumoniae 700603; [14],2 µM
"IRRIIRKIIHIIKK-NH2 [OV3, SMAP-29 derivative, parental peptide of Cu-1 to Cu-4]",% Helical (SDS),[1]; ref [8],38% [8]
same,MIC,A. baumannii BAA747 [2]; [9],1 µM
same,MIC,E. faecium 700221 (VRE); [9],16 µM
same,MIC,S. aureus 43300 (MRSA); [9],>16 µM
same,MIC,E. coli 25922 [3]; [9],>16 µM
same,MIC,P. aeruginosa 27583; [10],16 µM
same,MIC,K. pneumoniae 700603; [9],>16 µM
"KNLRRIIRKIIHIIKKYGPTILRIIRIIG [OV, SMAP-29 derivative]",% Helical (SDS),[1]; ref [17],86% [17]
"RRWKIVVIRWRR-NH2 [Sub5, bactenecin derivative]","MICA/MICB, concentration with no growth when dosed separately",E. coli 25922 [4]; [11],4 µM
same,"MICA/MICB, concentration with no growth when dosed separately",E. coli 25922 [4]; [12],2 µM
same,"MICA/MICB, concentration with no growth when dosed separately",E. coli 25922 [4]; [13],4 µM
same,"MICA/MICB, concentration with no growth when dosed separately",MRSA 43300 [5]; replicate 1,4 µM
same,"MICA/MICB, concentration with no growth when dosed separately",MRSA 43300 [5]; replicate 2,4 µM
same,"MICA/MICB, concentration with no growth when dosed separately",MRSA 43300 [5]; replicate 3,4 µM
same,"MICA/MICB, concentration with no growth when dosed separately",MRSA 43300 [6]; [11],1 µM
same,"MICA/MICB, concentration with no growth when dosed separately",MRSA 43300 [6]; [12],2 µM
same,"MICA/MICB, concentration with no growth when dosed separately",MRSA 43300 [6]; [13],2 µM
same,"MICA/MICB, concentration with no growth when dosed separately",E. coli 25922 [7]; replicate 1,8 µM
same,"MICA/MICB, concentration with no growth when dosed separately",E. coli 25922 [7]; replicate 2,8 µM
same,"MICA/MICB, concentration with no growth when dosed separately",E. coli 25922 [7]; replicate 3,8 µM
same,"MICA/MICB, concentration with no growth when dosed separately",A. baumannii BAA747 [8]; replicate 1,2 µM
same,"MICA/MICB, concentration with no growth when dosed separately",A. baumannii BAA747 [8]; replicate 2,2 µM
same,"MICA/MICB, concentration with no growth when dosed separately",A. baumannii BAA747 [8]; replicate 3,2 µM
same,MIC,A. baumannii BAA747 [2]; [14],0.8 µM
same,MIC,E. faecium 700221 (VRE); [14],0.5 µM
same,MIC,S. aureus 43300 (MRSA); [14],2 µM
same,MIC,E. coli 25922 [3]; [14],3.3 µM
same,MIC,P. aeruginosa 27583; [15],4 µM
same,MIC,K. pneumoniae 700603; [14],1.7 µM
